Source: patent publication US6458765B1, “Dolastatin 15 derivatives” (BASF Aktiengesellschaft, priority 1997, dated 2002)

test system: HT-29 colon carcinoma cells; type: cell-based; details: not given

| Substance | IC50 [nM] |
| --- | --- |
| Me2Aib-Val-MeVal-Pro-Pro-NHBn [Compound 3] | 35 |
| Xad Val Xaa Pro Xap [Compound 13] | 1 |
| Xae Val Xaa Pro Xab [Compound 8] | 510 |
| Xam Val Xaa Pro Xab [Compound 10] | 130 |
| Xao Val Xaa Pro Xab [Compound 12] | 370 |
| Xaq Val Xaa Pro Xab [Compound 14] | 1.5 |
| Xar Val Xaa Pro Xab [Compound 15] | 170 |
| Xas Val Xaa Pro Xab [Compound 16] | 0.73 |
| Xat Val Xaa Pro Xab [Compound 17] | 63 |
| Xat Val Xaa Pro Xab [Compound 18] | 8.8 |
| Xau Val Xaa Pro Xab [Compound 76] | 0.23 |
| Xau Val Xaa Pro Xab [Compound 77] | 7.2 |
| Xau Val Xaa Pro Xbp [Compound 73] | 1.4 |
| Xau Val Xaa Pro Xbp [Compound 96] | 1.7 |
| Xau Val Xaa Pro Xbp [Compound 97] | 32 |
| Xau Val Xaa Pro Xbx [Compound 74] | 51 |
| Xau Val Xaa Pro Xcb [Compound 78] | 4.3 |
| Xau Val Xaa Pro Xcc [Compound 90] | 0.93 |
| Xau Val Xaa Pro Xcd [Compound 91] | 0.83 |
| Xaw Val Xaa Pro Xbn [Compound 45] | 56 |
| Xaw Val Xaa Pro Xbp [Compound 48] | 25 |
| Xaw Val Xaa Pro Xbq [Compound 51] | 46 |
| Xaw Val Xaa Pro Xbr [Compound 52] | 340 |

| Substance | IC50 [nM] |
| --- | --- |
| Xaw Val Xaa Pro Xbx [Compound 66] | 340 |
| Xax Val Xaa Pro Xab [Compound 22] | 640 |
| Xay Val Xaa Pro Xab [Compound 24] | 28 |
| Xba Val Xaa Pro Xab [Compound 27] | 37 |
| Xba Val Xaa Pro Xbp [Compound 100] | 2300 |
| Xba Val Xaa Pro Xbp [Compound 101] | 2100 |
| Xba Val Xaa Pro Xcb [Compound 92] | 1500 |
| Xba Val Xaa Pro Xcb [Compound 93] | 1800 |
| Xba Val Xaa Pro Xcc [Compound 102] | 120 |
| Xba Val Xaa Pro Xcc [Compound 103] | 110 |
| Xba Val Xaa Pro Xcd [Compound 104] | 3500 |
| Xbb Val Xaa Pro Xab [Compound 28] | 49 |
| Xbc Val Xaa Pro Xab [Compound 29] | 36 |
| Xbd Val Xaa Pro Xab [Compound 30] | 6.1 |
| Xbd Val Xaa Pro Xab [Compound 31] | 200 |
| Xbe Val Xaa Pro Xab [Compound 32] | 850 |
| Xbe Val Xaa Pro Xab [Compound 33] | 1200 |
| Xbf Val Xaa Pro Xab [Compound 34] | 5 |
| Xbf Val Xaa Pro Xab [Compound 43] | 59 |
| Xbg Val Xaa Pro Xab [Compound 35] | 140 |
| Xbh Val Xaa Pro Xab [Compound 36] | 6.2 |
| Xbh Val Xaa Pro Xab [Compound 37] | 190 |
| Xbi Val Xaa Pro Xab [Compound 38] | 730 |

| Substance | IC50 [nM] |
| --- | --- |
| Xbi Val Xaa Pro Xab [Compound 39] | 25 |
| Xbi Val Xaa Pro Xbx [Compound 75] | 850 |
| Xbi Val Xaa Pro Xcb [Compound 79] | 1700 |
| Xbi Val Xaa Pro Xcb [Compound 80] | 67 |
| Xbi Val Xaa Pro Xcc [Compound 81] | 130000 |
| Xbi Val Xaa Pro Xcc [Compound 82] | 11 |
| Xbi Val Xaa Pro Xcd [Compound 83] | 130 |
| Xbi Val Xaa Pro Xcd [Compound 98] | 6 |
| Xbk Val Xaa Pro Xab [Compound 40] | 560 |
| Xbk Val Xaa Pro Xab [Compound 41] | 7300 |
| Xbk Val Xaa Pro Xcc [Compound 84] | 1200 |
| Xbk Val Xaa Pro Xcc [Compound 85] | 9500 |
| Xbk Val Xaa Pro Xcd [Compound 99] | 3800 |
| Xbl Val Xaa Pro Xab [Compound 42] | 340 |
| Xbl Val Xaa Pro Xab [Compound 54] | 4.2 |
| Xbl Val Xaa Pro Xab [Compound 55] | 56 |
| Xbm Val Xaa Pro Xab [Compound 44] | 48 |
| Xbo Val Xaa Pro Xbn [Compound 46] | 720 |
| Xbo Val Xaa Pro Xbn [Compound 47] | 23 |
| Xbo Val Xaa Pro Xbp [Compound 49] | 88 |
| Xbo Val Xaa Pro Xbp [Compound 50] | 89 |
| Xbo Val Xaa Pro Xbp [Compound 94] | 3000 |
| Xbo Val Xaa Pro Xbp [Compound 95] | 11 |

| Substance | IC50 [nM] |
| --- | --- |
| Xbo Val Xaa Pro Xbq [Compound 64] | 1700 |
| Xbo Val Xaa Pro Xbq [Compound 65] | 97 |
| Xbo Val Xaa Pro Xbr [Compound 62] | 99 |
| Xbo Val Xaa Pro Xbr [Compound 63] | 56 |
| Xbo Val Xaa Pro Xbx [Compound 72] | 120 |
| Xbs Val Xaa Pro Xbt [Compound 53] | 5 |
| Xbs Val Xaa Pro Xbt [Compound 60] | 1.8 |
| Xbv Val Xaa Pro Xab [Compound 57] | 25 |
| Xbw Val Xaa Pro Xab [Compound 58] | 63 |
| Xbw Val Xaa Pro Xab [Compound 59] | 190 |
| Xby Val Xaa Pro Xab [Compound 67] | 340 |
| Xbz Val Xaa Pro Xab [Compound 68] | 420 |
| Xca Val Xaa Pro Xab [Compound 70] | 7100 |
| Xce Val Xaa Pro Xab [Compound 105] | 18 |
| Xcf Val Xaa Pro Xab [Compound 106] | 97 |
| Xcg Val Xaa Pro Xab [Compound 108] | 7100 |
| [N,N-Dimethyl-2-ethyl-2-phenylglycyl]-Val-MeVal-Pro-Pro-NHBn×HCl [Compound 4] | 1.2 |
| [N-Methyl-D-Pro]-Val-MeVal-Pro-Pro-NHBn [Compound 5] | 5 |
| [N-Methyl-D-piperidine-2-carbonyl]-Val-MeVal-Pro-Pro-NHBn [Compound 2] | 0.68 |
| [N-Methyl-L-piperidine-2-carbonyl]-Val-MeVal-Pro-Pro-NHBn [Compound 1] | 47 |

test system: P388 lymphocytic leukemia (PS system) cell line; details: National Cancer Institute's P388 (PS system); cited from earlier work

| Substance | inhibition of growth of P388 cell line |
| --- | --- |
| Dolastatin 15 | markedly inhibits the growth |

test system: not given; details: synthetic Dolastatin 15; cited from earlier work

| Substance | solubility in aqueous systems |
| --- | --- |
| Dolastatin 15 | poor solubility |
